Measured values: patent US20030044413A1, “Methods of limiting apoptosis of cells” (Regents of the University of Minnesota, priority 1998, published 2003)
Entries after “also recorded” stand apart in the source; their conditions may differ.

Key:
[1] = test system: rat primary hepatocytes; experiment: Apoptosis in isolated rat hepatocytes with DCA, TGF-β1 or okadaic acid ± UDCA (Example III); format: cell-based; settings: for percentage of apoptotic cells: 50 μM deoxycholic acid 4 hours, 1 nM TGF-β1 24 hours, 25 nM okadaic acid 16 hours
Description: Cell culture and preparation of rat primary hepatocytes. Rat primary hepatocytes were isolated from male Sprague-Dawley rats (200-250 g) by collagenase perfusion as described by Mariasb, et al., J. Biol. Chem. 261, 9583-9586 (1986). Briefly, rats were anesthesized with phenobarbitol and the livers were perfused with 0.05% collagenase. Hepatocyte suspensions were obtained by passing digested livers through 0.125 mm gauze and washing cells in modified Eagle's medium (MEM) (Life Technologies, Inc., Grand Island, N.Y.). Cell viability was determined by trypan blue exclusion and was typically 85 to 90%. After isolation, hepatocytes were resuspended in William's E medium (Life Technologies, Inc.) supplemented with 26 mM sodium bicarbonate, 23 mM HEPES, 0.01 U/mL insulin, 2 mM L-glutamine, 10 nM dexamethasone, 5.5 mM glucose, 100 U/ml penicillin and 100 U/ml streptomycin and then plated on 35×10 mm […] tissue culture dishes (Becton Dickinson Labware, Lincoln Park, N.J.) at 1.0×10^6 cells/ml. The cells were maintained at 37° C. in a humidified atmosphere of 5% CO2 for 3 h. Plates were then washed with medium to remove dead cells, and medium containing 10% heat-inactivated FBS (55° C. for 30 min) was added (Atlanta Biologicals, Inc., Norcross, Ga.).
Incubation of cells with inducers of apoptosis. Freshly isolated rat hepatocytes were cultured for 3 h as described above and then incubated with William's E medium supplemented with either 50 μM DCA for 4 h, 1 nM TGF-β1 for 24 h, or 25 nM okadaic acid for 16 h, in the presence or absence of 100 μM UDCA, or no addition (control). The medium was gently removed at the indicated time points and scored for nonviable cells by trypan blue dye exclusion. The attached cells were fixed for morphologic assessment of apoptotic changes. Morphological evaluation of apoptosis. The medium was gently removed at the indicated time points to prevent detachment of cells. Cells were fixed with 4% formaldehyde in PBS, pH 7.4, for 10 min at room temperature, incubated with Hoechst dye 33258 (Sigma Chemical Co., St. Louis, Mo.) at […] in PBS for 5 min, washed with PBS and mounted with PBS:glycerol (3:1, v/v). Fluorescence was visualized with a Zeiss standard fluorescence microscope (Carl Zeiss, Inc., Thornwood, N.Y.). Photographs were taken with Kodak Ektar-1000 film (Eastman Kodak Co.). Stained nuclei were scored by blind analysis and categorized according to the condensation and staining characteristics of chromatin. Normal nuclei were identified as noncondensed chromatin dispersed over the entire nucleus. […] Three fields per dish of approximately 500 nuclei were counted; mean values are expressed as the percent of apoptotic nuclei.

[2] = test system: Cos-7 cells; experiment: Okadaic acid-induced apoptosis, Cos-7 cells; format: cell-based, monkey
Experimental: HuH-7 cells were treated with 1 nM TGF-β1, 100 μM of either hyodeoxycholic acid, taurocholic acid, tauroursodeoxycholic acid (Sigma Chemical Co.) or glycoursodeoxycholic acid (Steraloids Inc., Wilton, N.H.), or a combination of TGF-β1 plus the individual bile acids for 72 h. HeLa and Cos-7 cells were incubated with 50 nM okadaic acid, 100 μM of either tauroursodeoxycholic acid or glycoursodeoxycholic acid, or a combination of okadaic acid plus the individual bile acids for 24 h. In the combination groups, cells were pretreated with the bile acid alone for 60 min prior to incuation with TGF-β1 or okadaic acid. In all studies, the medium was gently removed at the indicated times and scored for nonviable cells. The attached cells were fixed for morphologic evaluation of apoptosis.
Morphological evaluation of apoptosis. Morphology was performed as described previously (Oberhammer et al., Proc. Natl. Acad. Sci. USA 89, 5408-5412 (1992)). […] Fluorescence was visualized with a Zeiss standard fluorescence microscope (Carl Zeiss, Inc., Thornwood, N.Y.). […] Stained nuclei were scored by blind analysis and categorized according to the condensation and staining characteristics of chromatin. […] Three fields per dish of approximately 500 nuclei were counted; mean values are expressed as the percent of apoptotic nuclei.

[3] = test system: isolated rat liver mitochondria; experiment: FACS analysis of ΔΨm and ROS in isolated mitochondria
Experimental: Measurement of ΔΨm and ROS Production by FACS Analysis. ΔΨm and ROS production were measured by FACScan (Becton Dickinson, San Jose, Calif.) analysis. Freshly isolated rat mitochondria were resuspended in respiration buffer (50-100 μg/ml) and then incubated for 15 min at 37° C. with 50 nM 3,3′-dihexyloxacarbocyanine iodide [DiOC6(3)],2 μM dihydroethidium (HE), or 5 μM 2′,7′-dichlorofluorescin diacetate (H2DCFDA; Molecular Probes Inc.) (Cathcart et al., Anal. Biochem., 134, 111-116 (1983); Carter et al., J. Leukoycte Biol, 55, 253-258 (1994); Zamzami et al., J. Exp. Med., 181 1661-1672 (1995)). Mitochondria were then treated with DCA (100 μM) or PhAsO (80 μM) for 5 min and analyzed by cytofluorometry. For the coincubation studies, mitochondria were preincubated with UDCA (500 μM) or HDCA (500 μM) prior to the addition of either DCA or PhAsO.

[4] = 100 μM DCA alone or 500 μM UDCA alone

TGF-β1: transforming growth factor β1, nonmembrane damaging inducer of apoptosis
percentage of apoptotic cells [1]: 30%

C=C1[C@@H](O)[C@@H]2O[C@]3(CC[C@H](/C=C/[C@@H](C)[C@@H]4CC(C)=C[C@@]5(O[C@H](C[C@@](C)(O)C(=O)O)CC[C@H]5O)O4)O3)CC[C@H]2O[C@@H]1[C@@H](O)C[C@H](C)[C@H]1O[C@@]2(CCCCO2)CC[C@H]1C [okadaic acid]
percent apoptosis ([2]; okadaic acid alone): 21.4±2.9%
percentage of apoptotic cells [1]: 75%

C[C@H](CCC(=O)O)[C@H]1CC[C@H]2[C@@H]3[C@@H](O)C[C@@H]4C[C@H](O)CC[C@]4(C)[C@H]3CC[C@]12C [UDCA, ursodeoxycholic acid]
percent apoptosis ([2]; okadaic acid + UDCA): 7.3±2.4%
reduction of ROS production of peroxides ([3]; 80 μM PhAsO + 500 μM UDCA): 55%
reduction of ROS production of superoxide anions ([3]; 80 μM PhAsO + 500 μM UDCA): 100%
reduction of ΔΨm disruption ([3]; 80 μM PhAsO + 500 μM UDCA versus PhAsO alone): approximately 65%
other ROS (peroxides, H2DCFDA) ([3]; 100 μM DCA + 500 μM UDCA): 14.7±1.4%
percentage of low ΔΨm ([3]; 100 μM DCA + 500 μM UDCA): 10.3±0.7%
superoxide anion production ([3]; 100 μM DCA + 500 μM UDCA): 15.9±1.5%
superoxide anion production [3, 4]: 11.8±2.8%
inhibition at 100 µM ([1]; Rattus norvegicus, Hepatocyte, 100 μM UDCA with each of the apoptosis-inducing agents): > 80%

C[C@H](CCC(=O)O)[C@H]1CC[C@H]2[C@@H]3CC[C@@H]4C[C@H](O)CC[C@]4(C)[C@H]3C[C@H](O)[C@]12C [DCA, deoxycholic acid]
other ROS (peroxides, H2DCFDA) ([3]; 100 μM DCA alone): 21.7±3.5%
superoxide anion production [3, 4]: 20.7±2.4%
percentage of low ΔΨm ([3]; 100 μM DCA alone, 5 min): 16.0±1.8%
percentage of apoptotic cells [1]: 7%

C[C@H](CCC(=O)O)[C@H]1CC[C@H]2[C@@H]3C[C@H](O)[C@@H]4C[C@H](O)CC[C@]4(C)[C@H]3CC[C@]12C [hyodeoxycholic acid]
effect on DCA-mediated changes in ΔΨm and ROS production ([3]; 100 μM DCA, 500 μM bile acid pretreatment, listed as HDCA): did not prevent DCA-mediated changes; also recorded: does not significantly inhibit
ΔΨm and ROS with HDCA alone ([3]; 500 μM HDCA alone): no changes were observed
